Measured values reported in publication PMC10305119, “Analogs of 6-Bromohypaphorine with Increased Agonist Potency for α7 Nicotinic Receptor as Anti-Inflammatory Analgesic Agents” (Marine Drugs, 2023).
Entries after “also recorded” stand apart in the source; their conditions may differ. Where two headings read alike, the source gives them in different places.

Tests used:
human α7 nAChR = molecular target: T1, human α7 nAChR (Homo sapiens, UniProt P36544); experiment: Calcium fluorescence assay on α7 nAChR expressed in Neuro2a cells, in the presence of PNU120596; assay type: cell-based; details: for α7 nAChR agonistic activity: at concentrations up to 1 mM, PNU 120,596 present
T1 construct: expressed in transfected cells; host or cells: mouse neuroblastoma Neuro2a, transient co-transfection with Ric-3 (Ric3-pCMV6-XL5, OriGene) and the calcium sensor Case12
T1 sequence (P36544 23-502): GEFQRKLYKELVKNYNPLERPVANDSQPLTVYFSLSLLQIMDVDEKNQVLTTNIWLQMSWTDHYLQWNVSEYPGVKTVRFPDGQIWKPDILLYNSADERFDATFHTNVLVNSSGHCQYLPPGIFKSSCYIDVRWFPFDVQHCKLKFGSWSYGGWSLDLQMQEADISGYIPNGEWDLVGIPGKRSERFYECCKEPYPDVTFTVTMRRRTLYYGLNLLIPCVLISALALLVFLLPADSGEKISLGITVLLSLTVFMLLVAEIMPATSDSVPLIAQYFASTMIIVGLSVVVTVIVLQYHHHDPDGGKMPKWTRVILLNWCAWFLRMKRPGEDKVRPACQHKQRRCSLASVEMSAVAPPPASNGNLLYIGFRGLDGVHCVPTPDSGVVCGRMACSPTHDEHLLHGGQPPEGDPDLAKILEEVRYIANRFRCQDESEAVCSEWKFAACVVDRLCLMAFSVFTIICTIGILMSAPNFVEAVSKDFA
Method: A panel of the synthesized compounds was tested to determine their activity on α7 nAChR by fluorescence detection of cytoplasmic calcium rise (Figure 2a).
Mouse neuroblastoma Neuro2a cells were purchased from the Russian collection of cell cultures (Institute of Cytology, Russian Academy of Sciences, Saint Petersburg, Russia). Cells were cultured in Dulbecco’s modified Eagle’s essential medium (Paneco, Moscow, Russia) supplemented with 10% fetal bovine serum (Sigma, St. Louis, MO, USA). The cells one day before transfection were subcultured and plated at a density of 10,000 cells per well on a 96-well plate. The next day, Neuro2a cells were transiently transfected with plasmids coding α7 nAChR (human α7 nAChR-pCEP4) or its mutants, the chaperone Ric-3 (Ric3-pCMV6-XL5, OriGene, USA) and a fluorescent calcium sensor Case12 (pCase12-cyto vector, Evrogen, Russia) in molar ratio 4:1:1. Lipofectamine transfection protocol (Invitrogen, Waltham, MA, USA) was performed as recommended by the manufacturer. Transfected cells were grown at 37 °C in a CO2 incubator for 48 h.
Calcium […] assay was performed as described previously. Briefly, Transfected Neuro2a cells were grown on black 96-well plates (Corning, Somerville, MA, USA) at 37 °C in a CO2 incubator for 72 h, then growth medium was substituted with buffer containing 140 mM NaCl, 2 mM CaCl2, 2.8 mM KCl, 4 mM MgCl2, 20 mM HEPES, 10 mM glucose; pH 7.4.
Cells were incubated with the α7 nAChR positive allosteric modulator PNU120596 (10 μM, Tocris, Bristol, UK) for 20 min at room temperature before the addition of tested compounds. Plates were measured in microplate reader Hidex Sence (Hidex, Turku, Finland) using excitation at 485 nm and emission at 535 ± 10 nm. Fluorescence peak intensity in each well was expressed as a percentage of the maximal obtained response. Data files were analysed using Hidex Sence software (Hidex, Turku, Finland). Controls were run in the presence of 4 μM α-cobratoxin.
The R statistical programming environment “https://www.r-project.org/” (accessed on 16 June 2023) was used to analyze the results. Base R graphics and ggplot2 [54] graphical library were used for the data visualisation. Dose-response curves were fitted using “nlm” function and the following equation: response ~ (100/1 + (EC50/x)^n), where x denotes base 10 logarithm of ligand concentration in moles per liter (normalized to 1M) and n is the Hill coefficient. Libraries “rgl” “https://CRAN.R-project.org/package=rgl” (accessed on 16 May 2023) and “barplot3d” “https://cran.r-project.org/src/contrib/Archive/barplot3d/” (accessed on 16 May 2023) were used to generate the 3D bar chart shown on Figure 2b.
Figure 2 In vitro activity determination of the synthesized compounds. […] The receptor activation was detected as an increase in fluorescent signal in cell cytoplasm by fluorescence microscopy or as total fluorescence of the well in 96-well plate reader setup. Normalized fluorescence amplitude was plotted against base 10 logarithm of mole per liter concentration of the tested agonist and EC50 values were than calculated using dose-response equation. […] Substitutions in the 6th position of the indole ring (designated as X) were halogens (green shadow), hydrogen bond acceptors (yellow shadow) or hydrogen bond donors (blue shadow). Carboxy group modifications were comprised by free acid (Q = OH), ethers (Q = OCH3, OC2H5), and amides (Q = NH2, NHCH3).

CFA-induced inflammation = CFA-induced inflammation test; assay type: in vivo, ICR mice; details: mice; for analgesia in hot plate test: 2 h after injection, 53 °C, doses 0.1, 0.5, 1 mg/kg; for oedema (paw diameter): intramuscular 0.1, 0.5, 1 mg/kg, measured 6-48 h
Method: Anti-inflammatory effect of two analogs of 6-substituted hypaphorine (6ND and 6ID) was tested in a model with subplantar administration of complete Freund’s adjuvant (CFA) in mice. CFA was injected once into the footpad to induce oedema in 24 h. Oedema was measured with an electronic calliper. Immediately after paw measurement, 6ND or 6ID was injected intramuscularly in doses 1, 0.5, and 0.1 mg/kg. Paws were measured at 6, 12, 24, and 48 h after administration of 6ND or 6ID. […] End points at 48 h of drug treatments at dose […] have been analyzed in terms of paw diameter normalized to the maximal oedemic levels in each group (Figure 6d).
Additionally, after 2 h following the drug injection, the analgesia test was conducted on the “hot plate” preheated to 53 °C. The time of withdrawal or licking of the affected paw was assessed for each animal.
The development of the inflammation and thermal hyperalgesia of the paw was induced by the injection of the oil/saline (1:1) CFA emulsion (Sigma-Aldrich, St. Louis, MO, lot # WH327536) into the subplantar surface of the hind paw of the ICR mice (20 µL/paw) 24 h before the measurement. Oedema was measured with an electronic calliper. Immediately after paw measurement, 6ND or 6ID were injected intramuscularly in doses: 1, 0.5, and 0.1 mg/kg. Paws were measured at 6, 12, 24, and 48 h after administration of 6ND or 6ID. After 2 h following the drug injection, the inflamed paw withdrawal or licking latencies to thermal stimulation were measured on a hot plate device (Hot Plate Analgesia Meter, Columbus Instruments) with a set temperature of 53 ± 0.1 °C and a cut-off time of 60 s.

COC(=O)[C@@H](Cc1c[nH]c2cc(I)ccc12)[N+](C)(C)C [Compound 1, (D)-6-iodohypaphorine methyl ester]
EC50 (human α7 nAChR): 0.61 µM
analgesia in hot plate test (CFA-induced inflammation; listed as 6ID): effective in the hot plate test at 0.5 as well as at 1 mg/kg; also recorded: at doses 0.5 and 1 mg/kg showed significant analgesia
oedema (paw diameter) (CFA-induced inflammation; listed as 6ID): significantly reduced by 6ID at 0.5 mg/kg starting from 12 h of treatment; also recorded: effective against oedema at doses 0.5 and 1 mg/kg

C[N+](C)(C)[C@H](Cc1c[nH]c2ccccc12)C(=O)[O-] [Compound 16, L-hypaphorine, reference compound]
α7 nAChR agonistic activity (human α7 nAChR; listed as Hypaphorine): did not show α7 nAChR agonistic activity
α7 nAChR agonistic activity (human α7 nAChR; listed as L-hypaphorine): failed to activate α7 nAChR
EC50 (human α7 nAChR; human α7 nAChR in Neuro2a cells, PNU120596 10 μM present): no agonistic activity
analgesia in hot plate test (CFA-induced inflammation): analgesia in hot plate test at all tested doses from 0.1 to 1 mg/kg
oedema reduction at 48 h end point, normalized to maximal oedema (CFA-induced inflammation; dose 0.5, 48 h): markedly less effective reduction of oedema than 6ND and 6ID
oedema (paw diameter) (CFA-induced inflammation; listed as Hypaphorine): demonstrated anti-oedemic properties
oedema (paw diameter) (CFA-induced inflammation; listed as hypaphorine): significantly reduced edema in a concentration-dependent manner at doses 0.1–1 mg/kg

COC(=O)C(Cc1c[nH]c2cc([N+](=O)[O-])ccc12)[N+](C)(C)C (stereo not drawn) [Compound 5, methyl ester of 6-nitrohypaphorine]
EC50 (human α7 nAChR; human α7 nAChR in Neuro2a cells, PNU120596 10 μM present, read-out: EC50): 14 µM
analgesia in hot plate test (CFA-induced inflammation; listed as 6ND): significant analgesia in hot plate test only at 0.1 mg/kg; also recorded: at a dose of 0.1 mg/kg has a pronounced analgesic effect, but higher doses did not show a difference from the control group
